Laboratory results reported in publication PMC3152620 (Peptides, 2011).
No end group written: not given here.

Molecular target: human NMB receptor (Homo sapiens, UniProt P28336)
Test: Binding to hNMB receptors, both cell lines
Conditions: relative to the natural ligand NMB

Chain of human NMB receptor (P28336 whole entry): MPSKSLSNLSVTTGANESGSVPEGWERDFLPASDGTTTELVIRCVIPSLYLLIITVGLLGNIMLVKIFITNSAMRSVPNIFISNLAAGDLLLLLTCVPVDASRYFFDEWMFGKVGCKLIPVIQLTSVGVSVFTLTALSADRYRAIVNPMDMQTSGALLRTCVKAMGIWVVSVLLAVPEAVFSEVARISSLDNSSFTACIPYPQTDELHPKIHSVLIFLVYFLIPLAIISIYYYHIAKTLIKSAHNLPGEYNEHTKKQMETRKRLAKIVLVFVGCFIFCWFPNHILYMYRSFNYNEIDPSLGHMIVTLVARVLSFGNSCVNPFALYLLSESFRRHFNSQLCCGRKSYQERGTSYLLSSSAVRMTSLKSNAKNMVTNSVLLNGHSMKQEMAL

Substance: LSWDLPEPRSRAGKIRVHPRGNLWATGHFM-NH2 [NMB30, Neuromedin B (1–30)]
- Fold lower affinity for human NMB receptor than NMB: > 3 fold
